Target: Beta-secretase 1 (Homo sapiens, UniProt P56817)
Experiment: Inhibition of BACE1

Sequence of Beta-secretase 1 (P56817 whole entry): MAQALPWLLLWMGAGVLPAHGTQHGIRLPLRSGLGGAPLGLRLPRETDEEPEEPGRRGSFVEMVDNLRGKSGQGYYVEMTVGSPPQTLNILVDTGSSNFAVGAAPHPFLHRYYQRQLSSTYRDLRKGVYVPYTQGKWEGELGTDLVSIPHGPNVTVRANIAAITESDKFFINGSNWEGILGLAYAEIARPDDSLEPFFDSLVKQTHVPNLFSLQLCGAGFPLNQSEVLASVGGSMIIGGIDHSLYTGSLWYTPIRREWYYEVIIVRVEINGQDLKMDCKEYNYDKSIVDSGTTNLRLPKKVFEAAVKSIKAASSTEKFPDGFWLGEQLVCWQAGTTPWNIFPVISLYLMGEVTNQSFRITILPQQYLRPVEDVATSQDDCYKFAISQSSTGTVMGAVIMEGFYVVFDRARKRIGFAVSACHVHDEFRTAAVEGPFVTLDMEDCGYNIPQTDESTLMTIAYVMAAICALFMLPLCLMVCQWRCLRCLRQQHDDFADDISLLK

Row | SMILES | Ki (read-out: Ki) | Ki (read-out: Log Ki (converted))
1 | CC(C)C(=O)c1cc(-c2nnc([C@](C)(N)Cc3ccccc3)o2)cc(N(C)S(C)(=O)=O)c1 | 16.5 µM | 15.8 µM
2 | CCCN(c1cc(/C=C\C2CC2C)cc(-c2nnc([C@](C)(N)Cc3ccccc3)o2)c1)S(C)(=O)=O (some centres undefined) | 0.0519 µM | 0.0501 µM

— ChEMBL document CHEMBL1138425, “Beta-secretase (BACE-1) inhibitors: accounting for 10s loop flexibility using rigid active sites” (Bioorg Med Chem Lett, 2007)
